Experimental data reported in PubChem BioAssay AID248 (DTP/NCI, 2004).
Where “and” joins values, the source holds several entries; their conditions need not be identical. Equal values may be shown once. Inconclusive results and toxic doses are left out.

Test system: L1210 leukemia ip in BDF1 mice, survival T/C
Test: NCI In Vivo Anticancer Drug Screen. Data for tumor model L1210 Leukemia (intraperitoneal) in B6D2F1 (BDF1) mice
Settings: endpoint: mean survival time, higher = longer survival
How it was run: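 Survival endpoint. Drug-treated group vs vehicle group, expressed as T divided by C. Tumor passaged by transplantation.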

[1] = dose: 75.0 mg/kg/injection, schedule: Q01DX001 (ip), vehicle: saline
[2] = dose: 100.0 mg/kg/injection, schedule: Q01DX001 (ip), vehicle: carboxymethylcellulose (CMC)
[3] = dose: 200.0 mg/kg/injection, schedule: Q01DX001 (ip), vehicle: carboxymethylcellulose (CMC)
[4] = dose: 400.0 mg/kg/injection, schedule: Q01DX001 (ip), vehicle: carboxymethylcellulose (CMC)
[5] = dose: 100.0 mg/kg/injection, schedule: Q01DX001 (ip), vehicle: saline
[6] = dose: 400.0 mg/kg/injection, schedule: Q01DX001 (ip), vehicle: saline
[7] = dose: 100.0 mg/kg/injection, schedule: Q04DX003 (ip), vehicle: saline
[8] = dose: 50.0 mg/kg/injection, schedule: Q04DX002 (ip), vehicle: Klucel (hydroxypropylcellulose) (HPC)
[9] = dose: 100.0 mg/kg/injection, schedule: Q04DX002 (ip), vehicle: Klucel (hydroxypropylcellulose) (HPC)
[10] = dose: 200.0 mg/kg/injection, schedule: Q04DX002 (ip), vehicle: Klucel (hydroxypropylcellulose) (HPC)
[11] = dose: 400.0 mg/kg/injection, schedule: Q04DX002 (ip), vehicle: Klucel (hydroxypropylcellulose) (HPC)
[12] = dose: 100.0 mg/kg/injection, schedule: Q04DX003 (ip), vehicle: saline with Tween-80
[13] = dose: 200.0 mg/kg/injection, schedule: Q04DX003 (ip), vehicle: saline with Tween-80
[14] = dose: 400.0 mg/kg/injection, schedule: Q04DX003 (ip), vehicle: saline with Tween-80
[15] = dose: 100.0 mg/kg/injection, schedule: Q01DX009 (ip), vehicle: saline with Tween-80
[16] = dose: 100.0 mg/kg/injection, schedule: Q01DX009 (ip), vehicle: Klucel (hydroxypropylcellulose) (HPC)
[17] = dose: 200.0 mg/kg/injection, schedule: Q01DX009 (ip), vehicle: Klucel (hydroxypropylcellulose) (HPC)
[18] = dose: 400.0 mg/kg/injection, schedule: Q01DX009 (ip), vehicle: Klucel (hydroxypropylcellulose) (HPC)
[19] = dose: 50.0 mg/kg/injection, schedule: Q01DX009 (ip), vehicle: saline
[20] = dose: 200.0 mg/kg/injection, schedule: Q01DX001 (ip), vehicle: saline
[21] = dose: 25.0 mg/kg/injection, schedule: Q01DX009 (ip), vehicle: saline
[22] = dose: 100.0 mg/kg/injection, schedule: Q01DX009 (ip), vehicle: saline

## C[N+](C)(CCl)C1CCCCC1
[1]
  T/C: 107 % of control

## O=C1c2cc(Br)ccc2-c2c(Cl)cc(Br)cc21
[2]
  T/C: 105 % of control
[3]
  T/C: 97 % of control
[4]
  T/C: 105 % of control

## CS(=O)(=O)n1c(CO)nc2ccccc21
[2]
  T/C: 101 % of control
[3]
  T/C: 92 % of control
[4]
  T/C: 97 % of control

## O=C1c2cccc3cccc(c23)C(=O)N1c1ncn[nH]1
dose: 50.0 mg/kg/injection, schedule: Q01DX001 (ip), vehicle: saline
  T/C: 94 % of control
[5]
  T/C: 107 % of control
[6]
  T/C: 102 % of control

## O=S1(=O)CC=CC1
[7]
  T/C: 103 % of control
dose: 200.0 mg/kg/injection, schedule: Q04DX003 (ip), vehicle: saline
  T/C: 97 % of control
dose: 400.0 mg/kg/injection, schedule: Q04DX003 (ip), vehicle: saline
  T/C: 97 % of control

## Clc1ccc2c(c1)C1c3ccccc3C2C2c3ccccc3C1c1ccccc12 (stereo unspecified)
[8]
  T/C: 117 % of control
[9]
  T/C: 102 % of control
[10]
  T/C: 95 % of control and 88 % of control
[11]
  T/C: 88 % of control

## COc1ccc2c(c1)OC(C)(C)C(c1ccccc1)C2c1ccc(OCCN2CCCC2)cc1 (stereo unspecified)
[12]
  T/C: 119 % of control
[13]
  T/C: 94 % of control
[14]
  T/C: 95 % of control

## CCC[n+]1c(C)oc2ccc(-c3ccccc3)cc21
dose: 50.0 mg/kg/injection, schedule: Q01DX009 (ip), vehicle: saline with Tween-80
  T/C: 97 % of control
dose: 100.0 mg/kg/injection, schedule: Q01DX001 (ip), vehicle: saline with Tween-80
  T/C: 94 % of control
[15]
  T/C: 101 % of control
dose: 200.0 mg/kg/injection, schedule: Q01DX001 (ip), vehicle: saline with Tween-80
  T/C: 99 % of control
dose: 400.0 mg/kg/injection, schedule: Q01DX001 (ip), vehicle: saline with Tween-80
  T/C: 90 % of control

## O=C(CBr)NCCCCc1ccc(C(=O)O)cc1
dose: 10.0 mg/kg/injection, schedule: Q01DX001 (ip), vehicle: carboxymethylcellulose (CMC)
  T/C: 92 % of control
dose: 20.0 mg/kg/injection, schedule: Q01DX001 (ip), vehicle: carboxymethylcellulose (CMC)
  T/C: 100 % of control
dose: 40.0 mg/kg/injection, schedule: Q01DX001 (ip), vehicle: carboxymethylcellulose (CMC)
  T/C: 103 % of control

## CCOC(=O)c1ccc(NC(=O)Nc2cccc(C(C)=O)c2)cc1
[16]
  T/C: 95 % of control
[17]
  T/C: 93 % of control
[18]
  T/C: 101 % of control

## OCn1cnc2c(SC3CCCC3)ncnc21
dose: 35.0 mg/kg/injection, schedule: Q01DX015 (ip), vehicle: saline
  T/C: 114 % of control
[19]
  T/C: 112 % of control
dose: 50.0 mg/kg/injection, schedule: Q01DX015 (ip), vehicle: saline
  T/C: 123 % of control
dose: 80.0 mg/kg/injection, schedule: Q01DX009 (ip), vehicle: saline
  T/C: 119 % of control
dose: 88.0 mg/kg/injection, schedule: Q01DX009 (ip), vehicle: Klucel (hydroxypropylcellulose) (HPC)
  T/C: 154 % of control
[5]
  T/C: 88 % of control
dose: 120.0 mg/kg/injection, schedule: Q01DX015 (ip), vehicle: saline
  T/C: 153 % of control
dose: 180.0 mg/kg/injection, schedule: Q01DX009 (ip), vehicle: other
  T/C: 152 % of control
dose: 180.0 mg/kg/injection, schedule: Q01DX015 (ip), vehicle: saline
  T/C: 161 % of control
[20]
  T/C: 104 % of control
[17]
  T/C: 92 % of control
dose: 270.0 mg/kg/injection, schedule: Q01DX015 (ip), vehicle: saline
  T/C: 113 % of control
[6]
  T/C: 111 % of control

## ClC1(Cl)C2CCC3C(CCC21)C3(Cl)Cl (stereo unspecified)
[16]
  T/C: 100 % of control
[17]
  T/C: 107 % of control
[18]
  T/C: 107 % of control

## CC(=O)/C=C1\C(=O)Nc2ccccc21
[9]
  T/C: 104 % of control
[10]
  T/C: 89 % of control
[11]
  T/C: 91 % of control

## O=C(O)CNCC(=O)O
[21]
  T/C: 103 % of control
[19]
  T/C: 90 % of control
[22]
  T/C: 93 % of control and 95 % of control
[12]
  T/C: 105 % of control
[13]
  T/C: 101 % of control
[14]
  T/C: 105 % of control

## OC12CC3CC(CC(C3)C1)C2
[5]
  T/C: 95 % of control
[20]
  T/C: 106 % of control
[6]
  T/C: 103 % of control

## CCCCCCCCC[n+]1cccc(C(=O)c2ccccc2)c1
dose: 9.38 mg/kg/injection, schedule: Q01DX001 (ip), vehicle: saline
  T/C: 98 % of control
dose: 18.75 mg/kg/injection, schedule: Q01DX001 (ip), vehicle: saline
  T/C: 100 % of control
dose: 37.5 mg/kg/injection, schedule: Q01DX001 (ip), vehicle: saline
  T/C: 105 % of control

## CCCCC(CC)COP(=O)(CC(CC)CCCC)OCC(CC)CCCC (stereo unspecified)
[19]
  T/C: 111 % of control
[22]
  T/C: 107 % of control

## Cn1ccccc1=O
dose: 100.0 mg/kg/injection, schedule: Q04DX002 (ip), vehicle: saline
  T/C: 104 % of control
dose: 200.0 mg/kg/injection, schedule: Q04DX002 (ip), vehicle: saline
  T/C: 98 % of control
dose: 400.0 mg/kg/injection, schedule: Q04DX002 (ip), vehicle: saline
  T/C: 104 % of control

## COc1cc(OC)c(NC(=S)Nc2ccccc2C(F)(F)F)cc1Cl
[9]
  T/C: 106 % of control
[17]
  T/C: 88 % of control
[10]
  T/C: 92 % of control
[18]
  T/C: 95 % of control
[11]
  T/C: 95 % of control

## CSc1ccc(OC(=O)Nc2ccc(Cl)cc2)cc1C
[2]
  T/C: 89 % of control
dose: 100.0 mg/kg/injection, schedule: Q01DX009 (ip), vehicle: carboxymethylcellulose (CMC)
  T/C: 97 % of control and 100 % of control
[9]
  T/C: 103 % of control
dose: 100.0 mg/kg/injection, schedule: Q04DX002 (ip), vehicle: carboxymethylcellulose (CMC)
  T/C: 106 % of control and 108 % of control
[3]
  T/C: 102 % of control
dose: 200.0 mg/kg/injection, schedule: Q01DX009 (ip), vehicle: carboxymethylcellulose (CMC)
  T/C: 93 % of control and 97 % of control
[10]
  T/C: 98 % of control
dose: 200.0 mg/kg/injection, schedule: Q04DX002 (ip), vehicle: carboxymethylcellulose (CMC)
  T/C: 94 % of control and 108 % of control
[4]
  T/C: 93 % of control
[11]
  T/C: 92 % of control
dose: 400.0 mg/kg/injection, schedule: Q04DX002 (ip), vehicle: carboxymethylcellulose (CMC)
  T/C: 95 % of control and 104 % of control

## COc1cc(C=Nc2ccc3c(c2)nc(C)n3C)ccc1N(CCCl)CCCl
[9]
  T/C: 165 % of control
[10]
  T/C: 120 % of control
[11]
  T/C: 89 % of control

## CC(=O)Nc1ccccc1O
[8]
  T/C: 94 % of control
dose: 75.0 mg/kg/injection, schedule: Q01DX009 (ip), vehicle: saline
  T/C: 95 % of control
[9]
  T/C: 94 % of control and 102 % of control
dose: 150.0 mg/kg/injection, schedule: Q01DX009 (ip), vehicle: saline
  T/C: 113 % of control
[10]
  T/C: 102 % of control
dose: 300.0 mg/kg/injection, schedule: Q01DX009 (ip), vehicle: saline
  T/C: 89 % of control
[11]
  T/C: 113 % of control

## CCCCCC1SC1CC1SC1CCCCCCCC(=O)NCCCOCCOCCOCC (stereo unspecified)
[15]
  T/C: 121 % of control
dose: 200.0 mg/kg/injection, schedule: Q01DX009 (ip), vehicle: saline with Tween-80
  T/C: 104 % of control

## COCCCNC(=S)C(=S)NCCCOC
[9]
  T/C: 97 % of control
[10]
  T/C: 107 % of control

## CCN(CC)CCCNC(c1ccc(Cl)cc1)C(Cl)(Cl)Cl (stereo unspecified)
[1]
  T/C: 88 % of control

## COc1cc(OC)cc(C(N)=O)c1
dose: 50.0 mg/kg/injection, schedule: Q01DX009 (ip), vehicle: Klucel (hydroxypropylcellulose) (HPC)
  T/C: 88 % of control
[16]
  T/C: 97 % of control
dose: 100.0 mg/kg/injection, schedule: Q04DX003 (ip), vehicle: Klucel (hydroxypropylcellulose) (HPC)
  T/C: 86 % of control
[17]
  T/C: 91 % of control
dose: 400.0 mg/kg/injection, schedule: Q04DX003 (ip), vehicle: Klucel (hydroxypropylcellulose) (HPC)
  T/C: 86 % of control

## CC(=O)N(NC(C)C)C(C)C
dose: 6.25 mg/kg/injection, schedule: Q01DX009 (ip), vehicle: saline
  T/C: 104 % of control
dose: 12.5 mg/kg/injection, schedule: Q01DX009 (ip), vehicle: saline
  T/C: 93 % of control
[21]
  T/C: 94 % of control
dose: 25.0 mg/kg/injection, schedule: Q04DX003 (ip), vehicle: saline
  T/C: 98 % of control
[19]
  T/C: 100 % of control
dose: 50.0 mg/kg/injection, schedule: Q04DX003 (ip), vehicle: saline
  T/C: 98 % of control
[22]
  T/C: 104 % of control
[7]
  T/C: 93 % of control
